Laboratory results taken from patent publication US20230346735A1, “Nutritional Composition Comprising Carnitine and Method for Treating or Preventing an Infection in a Mammal” (priority 2020, published 2023).

Experiments:
ACE-1 [1] = assay: ACE-1 protein and mRNA in rat lung tissue; assay type: in vivo; settings: exercised rats
Excerpt: (§1) After a week of the adaptation period, the rats were divided into eight equal groups containing seven rats each. The initial body weights of the rats were similar in all the groups (214.53 grams ± 4.67; P > 0.05).
(§2) Groups 1 and 2 were not subjected to an exercise routine. Groups 3-8 were subjected to an exercise regimen consisting of a week training period with an incremental exercise capacity described below. After the week training period the exercise regimen followed was each rat in Groups 3-8 were subjected to 6 weeks of running at 25 m/min during 45 min […]. […] These correspond to 0, 250, 500, 1000, 2000 and 4000 mg per day for humans, respectively.
(§3) To determine the protein accumulation in the liver, muscle and lung samples, a Western Blotting test was used. Each of the tissue samples of the same group were pooled, homogenized, and sonicated in lysis buffer supplemented with 1X protease and phosphatase inhibitor cocktail (#5872, Cell Signaling). Total protein content was detected with Qubit 2.0 Fluorometer according to the manufacturer’s protocol (Invitrogen, Life Technologies Corporation, Carlsbad, CA, USA). […] Protein levels were analyzed densitometrically using an image analysis system (Image J; National Institute of Health, Bethesda, MD, USA), corrected with values determined on β-actin blots and expressed as relative values compared with the control group. […]

ACE-2 [2] = assay type: in vivo, rat
Protocol: Groups 1 and 2 were not subjected to an exercise routine. Groups 3-8 were subjected to an exercise regimen consisting of a week training period with an incremental exercise capacity described below. After the week training period the exercise regimen followed was each rat in Groups 3-8 were subjected to 6 weeks of running at 25 m/min during 45 min every day. […] These correspond to 0, 250, 500, 1000, 2000 and 4000 mg per day for humans, respectively.
After the 6-week exercise regimen was completed, muscle, lung, plasma and liver tissue samples were taken from these rats. The ACE-2 analysis of the tissue samples are subjected to the following test.
To determine the protein accumulation in the liver, muscle and lung samples, a Western Blotting test was used. Each of the tissue samples of the same group were pooled, homogenized, and sonicated in lysis buffer supplemented with 1X protease and phosphatase inhibitor cocktail (#5872, Cell Signaling). Total protein content was detected with Qubit 2.0 Fluorometer according to the manufacturer’s protocol (Invitrogen, Life Technologies Corporation, Carlsbad, CA, USA). Equal amounts of protein (20 µg) were size-fractionated using any-kD Mini-Protean TGX gel electrophoresis and then transferred to a nitrocellulose membrane using the Trans-Blot Turbo Transfer System (Bio-Rad, Life Sciences Research). Thereafter, membranes were blocked in 5% nonfat milk in Tris-buffered saline (TBS) containing 0.1% Tween (TBS-T; blocking solution) for 1 h at room temperature, washed in TBS-T, and incubated overnight with ACE-2 (Abcam, Cambridge, UK). The following day, membranes were washed with TBS-T and then incubated with horseradish peroxidase-conjugated goat anti-rabbit (Abcam, Cambridge, UK) or goat anti-mouse (Abcam, Cambridge, UK) secondary antibody (diluted 1:1000) for 1 h. Individual blots were performed at least three times. Protein loading was controlled by stripping and re-probing the nitrocellulose membrane with an anti-β-actin antibody (Abcam, Cambridge, UK). Protein levels were analyzed densitometrically using an image analysis system (Image J; National Institute of Health, Bethesda, MD, USA), corrected with values determined on β-actin blots and expressed as relative values compared with the control group.
To determine the mRNA expression levels of ACE-2 in the liver, lung and muscle samples a total RNA extraction and specific mRNA quantification was conducted by reverse transcription-polymerase chain reaction (RT-qPCR). Gene expressions were done by quantitative polymerase chain reaction (qPCR). […]

TMPRSS2 [3] = assay: Rat plasma serum ELISA, TMPRSS2; assay type: in vivo; settings: exercised rats, FIG. 5D
TMPRSS2 [4] = assay: TMPRSS2 protein and mRNA in rat tissue samples; assay type: in vivo; settings: exercised rats
Excerpt: as §1, §2, §3

Furin = Furin protein and mRNA in rat tissue samples; assay type: in vivo; settings: exercised rats
Excerpt: as §1, §2, §3

ACE-1 [5] = assay: Rat plasma serum ELISA, ACE-1; assay type: in vivo; settings: exercised rats, FIG. 5A
ACE-2 [6] = assay: Human study, serum ELISA, ACE-2; assay type: in vivo
Protocol: A human study was run with a total of 80 healthy male and female subjects ranging from 21 to 65 years of age, who were active (i.e. 30 minutes per day of moderate activity, 3 days per week) are randomized into two groups. […] Seventy-three subjects completed the trial and biomarker data were analyzed from the sera of the 73 completers. Sera were collected for analysis of C-Reactive Protein (CRP), ACE 1, ACE 2, TMPRSS 2, the Tumor Necrosis Factor alpha (TNF-alpha), and Furin at baseline in the beginning of the trial, at week 5 and 48 hr after an exercise challenge as described (Clinicaltrials.gov NCT04420377). The exercise challenge serves as surrogate to the inflammation stimulus.
To obtain human sera, venous blood was extracted by venipuncture of the antecubital vein using a 21-gauge syringe and collected into a 10 mL EDTA vacutainer tube (BD Vacutainer®, Becton, Dickinson and Company, Franklin Lakes, NJ) by a certified phlebotomist. […] Human ACE-1, ACE-2, TMPRSS2, Furin, CRP and TNF-alpha protein levels were assessed using commercially available ELISA kits, according the manufacturer recommendations, ACE-1 (R&D systems Inc., Minneapolis, MN, USA), ACE-2 (RayBiotech inc., Peachtree Corners, GA), TMPRSS2 (Novus Biologicals, Littleton, CO), CRP (R&D Systems Inc., Minneapolis, MN), TNF-alpha (Novus Biologicals, Littleton, CO), and Furin (Sigma Aldrich, St. Louis, MO). […]

[7] = tissues, versus exercise control

## C[N+](C)(C)C[C@H](O)CC(=O)[O-] [L-carnitine]
ACE-1 [1]; compared to the exercise control, without reaching the control levels
  ACE-1 mRNA levels: increased
ACE-1 [1]; lung, FIG. 6A, significantly lower than the baseline control levels
  ACE-1 protein levels: increase
ACE-2 [2]; exercised rats, oral, 6 weeks
  dose of maximum effect on ACE-2, TMPRSS2 and Furin levels: 200 mg/kg
ACE-2 [2]; exercised rats, tissues, versus exercise control
  ACE-2 mRNA levels: dose-dependent decrease
ACE-2 [2]; exercised rats, western blotting
  ACE-2 protein level: return to the baseline control
ACE-2 [2]; rats without exercise (inflammation), 200 mg/kg
  ACE-2 levels: does not affect these receptors
TMPRSS2 [3]
  serum TMPRSS2: controlling TMPRSS2
TMPRSS2 [4]; [7]
  TMPRSS2 mRNA levels: dose-dependent decrease
TMPRSS2 [4]; western blotting
  TMPRSS2 protein level: return to the baseline control
Furin; [7]
  Furin mRNA levels: dose-dependent decrease
Furin; western blotting
  Furin protein level: return to the baseline control
ACE-1 [5]
  serum ACE-1: near normal levels
ACE-2 [6]; 2 g daily, 5 weeks, 48 hours after exercise challenge, versus placebo
  ACE-2 serum levels: significant decrease
ACE-2 [6]; group A, from baseline compared to Wk5, p=0.046
  decrease in ACE-2: 8%
